Columns and labels:
[1] = biological target: T1, PPARγ-RXRα heterodimer (Homo sapiens, UniProt P37231); assay: PPARγ-RXRα heterodimer ligand activity (luciferase reporter); format: cell-based; settings: PPARγ:RXRα:4ERPP/CHO-K1 cells, 18-24 hr, concentration showing 50% of the maximum induction rate
T1 construct: expressed in transfected cells; host or cells: CHO-K1
T1 sequence (P37231 1-505): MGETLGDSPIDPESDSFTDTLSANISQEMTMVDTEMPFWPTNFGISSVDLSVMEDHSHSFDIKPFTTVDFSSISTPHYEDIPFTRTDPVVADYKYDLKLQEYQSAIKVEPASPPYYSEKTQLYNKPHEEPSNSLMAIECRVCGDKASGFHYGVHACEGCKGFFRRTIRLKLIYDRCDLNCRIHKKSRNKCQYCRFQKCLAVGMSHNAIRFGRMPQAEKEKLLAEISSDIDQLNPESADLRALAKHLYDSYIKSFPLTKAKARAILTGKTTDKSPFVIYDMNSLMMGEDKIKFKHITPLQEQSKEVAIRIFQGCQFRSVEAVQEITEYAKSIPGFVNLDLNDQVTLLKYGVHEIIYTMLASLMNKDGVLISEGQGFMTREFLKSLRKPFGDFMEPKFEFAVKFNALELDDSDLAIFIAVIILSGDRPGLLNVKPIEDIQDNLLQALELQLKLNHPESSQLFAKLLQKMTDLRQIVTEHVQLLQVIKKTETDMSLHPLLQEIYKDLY
T1 sequence (P19793 1-462 partner): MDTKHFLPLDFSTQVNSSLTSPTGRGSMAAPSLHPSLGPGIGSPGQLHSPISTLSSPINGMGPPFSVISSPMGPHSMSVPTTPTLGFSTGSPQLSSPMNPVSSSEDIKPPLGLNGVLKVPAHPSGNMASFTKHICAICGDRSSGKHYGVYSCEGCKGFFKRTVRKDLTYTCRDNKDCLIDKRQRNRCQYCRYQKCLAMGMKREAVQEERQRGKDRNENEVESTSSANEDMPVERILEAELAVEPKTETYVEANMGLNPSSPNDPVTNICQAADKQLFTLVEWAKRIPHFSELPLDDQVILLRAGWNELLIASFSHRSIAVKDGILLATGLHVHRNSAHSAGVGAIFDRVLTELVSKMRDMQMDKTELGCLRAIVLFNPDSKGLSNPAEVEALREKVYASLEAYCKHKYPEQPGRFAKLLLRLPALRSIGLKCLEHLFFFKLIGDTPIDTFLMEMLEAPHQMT
Method: The PPARγ:RXRα:4ERPP/CHO-K1 cells described in WO03/099793 were cultured in a Ham F12 medium [manufactured by Life Technologies, Inc., US] containing 10% calf fetal serum [manufactured by Life Technologies, Inc., US], sown in a 96-well white plate [manufactured by Corning Coster Corporation, US] at 2×10^4 cells/well, and incubated overnight in a carbon dioxide gas incubator at 37° C.
Then, the medium was removed from the 96 well white plate, 80 μl of Ham F12 medium containing 0.1% fatty acid-free bovine serum albumin (BSA) and a test compound (20 μl) were added, and the cells were incubated for 18-24 hr in a carbon dioxide gas incubator at 37° C. The medium was removed, 40 μl of PicaGene 7.5 (manufactured by Wako Pure Chemical Industries, Ltd.) diluted 2-fold with HBSS (HANKS' BALANCED SALT SOLUTION) [manufactured by BIO WHITTAKER, US] was added. After stirring, the luciferase activity was determined using the 1420 ARVO Multilabel Counter [manufactured by PerkinElmer, US].
(§1) The induction rate was calculated from the luciferase activity of each test compound based on the luciferase activity of the test compound non-administration group as 1. The test compound concentration and the induction rate were analyzed by PRISM [manufactured by GraphPad Software, Inc., US] to calculate EC50 value (compound concentration showing 50% of the maximum value of induction rate) of the test compound.

[2] = biological target: T2, PPARδ-RXRα heterodimer (Homo sapiens, UniProt Q03181); assay: PPARδ-RXRα heterodimer ligand activity (luciferase reporter); format: cell-based; settings: transformant of Reference Example 9a of WO03/099793, 36-48 hr, concentration showing 50% of the maximum induction rate
T2 construct: expressed in transfected cells
T2 sequence (Q03181 1-441): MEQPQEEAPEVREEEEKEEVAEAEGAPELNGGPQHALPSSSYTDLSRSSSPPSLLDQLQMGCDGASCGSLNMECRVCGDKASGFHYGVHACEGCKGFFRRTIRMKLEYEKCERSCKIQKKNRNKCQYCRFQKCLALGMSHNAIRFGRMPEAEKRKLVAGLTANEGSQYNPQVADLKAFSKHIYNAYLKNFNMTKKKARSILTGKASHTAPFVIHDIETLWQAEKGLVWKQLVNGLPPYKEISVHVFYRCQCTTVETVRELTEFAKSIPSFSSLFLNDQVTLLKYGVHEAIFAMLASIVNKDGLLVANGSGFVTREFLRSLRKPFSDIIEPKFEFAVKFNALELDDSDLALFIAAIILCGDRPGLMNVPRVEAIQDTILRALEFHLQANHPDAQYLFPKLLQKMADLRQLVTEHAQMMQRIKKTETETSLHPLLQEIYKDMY
T2 sequence (P19793 1-462 partner): T1 sequence (P19793 1-462 partner)
Method: The transformant described in Reference Example 9a of WO03/099793 was suspended in a DMEM medium [manufactured by Life technologies, Inc., US] containing 0.1% fatty acid-free bovine serum albumin (BSA) (manufactured by Wako Pure Chemical Industries, Ltd.), and inoculated to each well of a 96 well white plate [manufactured by Corning Coster Corporation, US] by 80 μl to 1×10^4 cells/well. Then, the test compound (20 μl) was added, and cultured under the conditions of 37° C., 5% CO2 for 36-48 hr. The medium was removed from the 96 well white plate, 40 μl of PicaGene LT 7.5 (manufactured by Wako Pure Chemical Industries, Ltd.) diluted 2-fold with HBSS (HANKS' BALANCED SALT SOLUTION) [manufactured by BIO WHITTAKER, US] was added and, after stirring, the luciferase activity was determined using the 1420 ARVO Multilabel Counter [manufactured by PerkinElmer, US].
as §1

Row | EC50 [1] | EC50 [2] | melting point | SMILES
1 | 1.2 nM | 2.8 nM | 98 to 99 °C | COc1cccc(CC(=O)O)c1OCCCc1cc(OC(C)C)nn1Cc1ccc(C(F)(F)F)cc1Cl [Example 66, [2-(3-{1-[2-chloro-4-(trifluoromethyl)benzyl]-3-isopropoxy-1H-pyrazol-5-yl}propoxy)-3-methoxyphenyl]acetic acid]
2 | 1.6 nM | 9.3 nM |  | CC(C)Oc1ccc(CCCOc2nn(C)cc2CC(=O)O)c(Oc2ncc(C(F)(F)F)cc2Cl)c1 [Example 116, {3-[3-(2-{[3-chloro-5-(trifluoromethyl)pyridin-2-yl]oxy}-4-isopropoxyphenyl)propoxy]-1-methyl-1H-pyrazol-4-yl}acetic acid]
3 |  | 2.5 nM |  | COc1cccc(CC(=O)O)c1OCCCc1ccc(OC(C)C)cc1Oc1ncc(C(F)(F)F)cc1Cl [Example 115, {2-[3-(2-{[3-chloro-5-(trifluoromethyl)pyridin-2-yl]oxy}-4-isopropoxyphenyl)propoxy]-3-methoxyphenyl}acetic acid]
4 | 0.75 nM | 9.2 nM |  | CC(C)Oc1ccc(CCCOc2nn(Cc3ccccc3)cc2CC(=O)O)c(Oc2ncc(C(F)(F)F)cc2Cl)c1 [Example 118, {3-[3-(2-{[3-chloro-5-(trifluoromethyl)pyridin-2-yl]oxy}-4-isopropoxyphenyl)propoxy]-1-benzyl-1H-pyrazol-4-yl}acetic acid]
5 |  | 44 nM |  | CCCOc1ccc(CCCOc2nn(C)cc2CC(=O)O)c(Oc2ncc(C(F)(F)F)cc2Cl)c1 [Example 113, {3-[3-(2-{[3-chloro-5-(trifluoromethyl)pyridin-2-yl]oxy}-4-propoxyphenyl)propoxy]-1-methyl-1H-pyrazol-4-yl}acetic acid]
6 | 0.35 nM | 4.4 nM | 128 to 129 °C | COCCOc1ccc(CCCOc2cc(CCC(=O)O)n(-c3ccccc3)n2)c(Oc2ncc(C(F)(F)F)cc2Cl)c1 [Example 147, 3-(3-{3-[2-{[3-chloro-5-(trifluoromethyl)pyridin-2-yl]oxy}-4-(2-methoxyethoxy)phenyl]propoxy}-1-phenyl-1H-pyrazol-5-yl)propanoic acid]
7 |  | 39 nM | 92 to 93 °C | COc1cccc(CC(=O)O)c1OCCCc1ccc(OC(C)C)cc1Oc1ncc(Cl)cc1Cl [Example 119, [2-(3-{2-[(3,5-dichloropyridin-2-yl)oxy]-4-isopropoxyphenyl}propoxy)-3-methoxyphenyl]acetic acid]
8 |  | 25 nM |  | CCCOc1ccc(CCCOc2nn(Cc3ccccc3)cc2CC(=O)O)c(Oc2ncc(C(F)(F)F)cc2Cl)c1 [Example 114, {3-[3-(2-{[3-chloro-5-(trifluoromethyl)pyridin-2-yl]oxy}-4-propoxyphenyl)propoxy]-1-benzyl-1H-pyrazol-4-yl}acetic acid]
9 |  | 44 nM |  | COc1cccc(CC(=O)O)c1OCCCc1ccc(Oc2ccc(C(F)(F)F)cn2)cc1OC(C)C [Example 101, {2-[3-(2-isopropoxy-4-{[5-(trifluoromethyl)pyridin-2-yl]oxy}phenyl)propoxy]-3-methoxyphenyl}acetic acid]
10 |  | 54 nM |  | CCCOc1cc(Oc2ccc(C(F)(F)F)cn2)ccc1CCCOc1c(CC(=O)O)cccc1OC [Example 102, {2-[3-(2-propoxy-4-{[5-(trifluoromethyl)pyridin-2-yl]oxy}phenyl)propoxy]-3-methoxyphenyl}acetic acid]

More lines, now with the values behind:

Row | SMILES | EC50 [1] | EC50 [2] | melting point
11 | CC(C)Oc1ccc(CCCOc2cc(CCC(=O)O)n(-c3ccccc3)n2)c(Oc2ncc(Cl)cc2Cl)c1 [Example 138, 3-[3-(3-{2-[(3,5-dichloropyridin-2-yl)oxy]-4-isopropoxyphenyl}propoxy)-1-phenyl-1H-pyrazol-5-yl]propanoic acid] | 1.2 nM | 4 nM | 
12 | CC(C)Oc1ccc(CCCOc2cc(CCC(=O)O)n(-c3ccccc3)n2)c(OCc2ccc(Cl)cc2Cl)c1 [Example 160, 3-[3-(3-{2-[(2,4-dichlorobenzyl)oxy]-4-isopropoxyphenyl}propoxy) -1-phenyl-1H-pyrazol-5-yl]propanoic acid] | 5.3 nM | 6 nM | 139 to 141 °C
13 | COc1cccc(CC(=O)O)c1OCCCc1cc(OC(C)C)nn1Cc1ccc(Cl)cc1OC(C)C [Example 70, (2-{3-[1-(4-chloro-2-isopropoxybenzyl)-3-isopropoxy-1H-pyrazol-5-yl]propoxy}-3-methoxyphenyl)acetic acid] |  | 60 nM | 
14 | CCn1nc(OCCCCc2ccc(OC(C)C)cc2Oc2ncc(C(F)(F)F)cc2Cl)cc1CCC(=O)O [Example 158, 3-{3-[4-(2-{[3-chloro-5-(trifluoromethyl)pyridin-2-yl]oxy}-4-isopropoxyphenyl)butoxy]-1-ethyl-1H-pyrazol-5-yl}propanoic acid] | 7.1 nM | 17 nM | 129 to 130 °C
15 | CC(C)Oc1ccc(CCCOc2cc(CCC(=O)O)n(C)n2)c(Oc2ncc(C(F)(F)F)cc2Cl)c1 [Example 139, 3-{3-[3-(2-{[3-chloro-5-(trifluoromethyl)pyridin-2-yl]oxy}-4-isopropoxyphenyl)propoxy]-1-methyl-1H-pyrazol-5-yl}propanoic acid] | 9 nM | 17 nM | 88 to 89 °C
16 | CC(C)Oc1ccc(CCCCOc2cc(CCC(=O)O)n(-c3ccccc3)n2)c(Oc2ncc(C(F)(F)F)cc2Cl)c1 [Example 156, 3-{3-[4-(2-{[3-chloro-5-(trifluoromethyl)pyridin-2-yl]oxy}-4-isopropoxyphenyl)butoxy]-1-phenyl-1H-pyrazol-5-yl}propanoic acid] | 0.99 nM | 3.4 nM | 75 to 77 °C
17 | CCn1cc(CC(=O)O)c(OCCCc2ccc(OC(C)C)cc2Oc2ncc(Cl)cc2Cl)n1 [Example 120, [3-(3-{2-[(3,5-dichloropyridin-2-yl)oxy]-4-isopropoxyphenyl}propoxy)-1-ethyl-1H-pyrazol-4-yl]acetic acid] | 3.3 nM | 23 nM | 
18 | CC(C)Oc1ccc(CCCOc2nn(C)cc2CC(=O)O)c(Oc2ncc(Cl)cc2Cl)c1 [Example 132, [3-(3-{2-[(3,5-dichloropyridin-2-yl)oxy]-4-isopropoxyphenyl}propoxy)-1-methyl-1H-pyrazol-4-yl]acetic acid] | 11 nM | 88 nM | 

Reference: US20080051418A1, “Arylalkanoic Acid Derivative” (priority 2004, published 2008)
